In patent US12403086B2, “Solid drug tablets for implantable drug delivery devices” (TARIS Biomedical LLC, priority 2009, dated 2025):

Columns and labels:
[1] = In vitro drug release from silicone tube devices loaded with solid lidocaine tablets (diffusion through the wall of the drug reservoir); assay type: physicochemical; conditions: silicone tube ID about 0.060 in, OD 0.076 in, length about 3 cm, payload about 60 mg, no aperture; in vitro in water at about 37° C.
Method: A study was performed to determine the feasibility of delivering drug through the wall of a drug reservoir via diffusion. Devices were formed form silicone tubes having an inner diameter of about 0.060 inches, an outer diameter of 0.076 inches, and a length of about 3 cm. The devices were loaded with solid drug tablets of lidocaine, for a total payload of about 60 mg. Some of the devices included an aperture formed through the tube wall, the aperture having a diameter of 150 μm. These devices were loaded with solid tablets of either lidocaine hydrochloride monohydrate or a combination of lidocaine hydrochloride monohydrate and lidocaine base. […] The devices were tested in vitro in water at about 37° C.

[2] = In vitro drug release from silicone tube devices loaded with lidocaine base tablets, with varying numbers of apertures; assay type: physicochemical; conditions: silicone tubes about 3 cm, payload about 60 mg, in vitro in water at about 37° C.
Method: Another study was performed to investigate the feasibility of delivering drug from a device through both a wall of a drug reservoir and from an aperture in the wall of the drug reservoir. Devices were formed form silicone tubes having a length of about 3 cm. The devices were loaded with solid drug tablets of lidocaine base, for a total payload of about 60 mg. […] The devices were tested in vitro in water at about 37° C.

SMILES: CCN(CC)CC(=O)Nc1c(C)cccc1C [lidocaine base, lidocaine]
- delivery of drug via diffusion through the silicone wall of the drug reservoir [1]: feasible to deliver drug via diffusion through a silicone wall without an aperture
- release from silicone tube without apertures ([2]; no apertures (ID 0.060/OD 0.076 in and ID 0.062/OD 0.095 in)): can be released from a silicone tube without any apertures
- effect of apertures on release rate ([2]; 0, 1 (150 μm), 2, 30 or 60 (360 μm) apertures): release rate can be increased by adding apertures to the device
